From patent EP4613271A1, “USE OF 1-METHYLNICOTINAMIDE IN PREPARATION OF ANTI-VASCULAR CALCIFICATION DRUG” (The Eight Affiliated Hospital, Sun Yat-Sen University, priority 2023, dated 2024)

Assays:
[1] = tested on: Human vascular smooth muscle cells; assay: bleomycin (BLM) and phosphorus-induced calcification of vascular smooth muscle cells under aging conditions (alizarin red staining, calcium content); type: cell-based; conditions: 100 µM 1-methylnicotinamide, 2.6 mM phosphorus, 1 µg/mL bleomycin, 7 days
Description: (§1) • 1. In this example, bleomycin (BLM) and phosphorus were added to induce vascular calcification in vascular smooth muscle cells, and 1-methylnicotinamide or nicotinamide N-methyltransferase inhibitor (NNMTi) was added for intervention for 7 days, and then alizarin red staining was performed to evaluate the inhibitory effect of 1-methylnicotinamide on vascular calcification. The specific procedure was as follows. Human vascular smooth muscle cells of passages 8-12 were plated in a 12-well plate at 1×10^5/well, and 1 mL of DMEM complete medium was added to each well. On the first day after plating, 2.6 mM phosphorus was added to induce calcification, and 100 µM 1-methylnicotinamide or 25 µM nicotinamide N-methyltransferase inhibitor (NNMTi) was added for intervention. […] After 7 days of intervention with 1-methylnicotinamide or nicotinamide N-methyltransferase inhibitor (NNMTi), a calcium content was determined. […]
(§2) Human vascular smooth muscle cells of passages 8-12 were plated in a 6-well plate at 2×10^5/well, and 2 mL of DMEM complete medium was added to each well. […] On the seventh day, the calcium content was determined.

[2] = tested on: Naturally aged C57BL/6 mice; assay: high-calcium and high-adenine diet-induced vascular calcification in aged mice (aorta alizarin red staining, IHC of aortic rings); type: in vivo; conditions: 2.5 months, 25 months old mice
Description: • 1. In this example, a high-calcium and high-adenine diet was used to induce vascular calcification in aged mice. After intervention by using 1-methylnicotinamide for 2.5 months, alizarin red staining was performed on the aorta of the mice to evaluate the inhibitory effect of 1-methylnicotinamide on vascular calcification in aged mice. The specific procedure was as follows.
Naturally aged C57BL/6 mice (25 months old) were randomly divided into a control group (n=10), a high-calcium and high-adenine group (n=10), and a high-calcium and high-adenine + 1-methylnicotinamide group (100 mg/kg/day) (n=10), and were fed with normal feed, high-calcium and high-adenine feed, and high-calcium and high-adenine feed and 1-methylnicotinamide respectively, and water is normally provided for each group. The mice were killed after 2.5 months, and the aortas of the mice were obtained for alizarin red staining.
2. To further verify the effect of 1-methylnicotinamide in inhibiting vascular calcification in aged mice, a high-calcium and high-adenine diet was used to induce vascular calcification in aged mice. After 2.5 months of intervention with 1-methylnicotinamide, the IHC staining was performed on α-smooth muscle actin (α-SMA) and bone morphogenetic protein 2 (BMP2) in mouse aortic rings to further evalaute the inhibitory effect of 1-methylnicotinamide on vascular calcification in aged mice. […]

[3] = tested on: Human vascular smooth muscle cells; assay: phosphorus-induced calcification of vascular smooth muscle cells (alizarin red staining, calcium content); type: cell-based; conditions: 100 µM 1-methylnicotinamide, 2.6 mM phosphorus, 7 days
Description: as §1, with “example,” for “example, bleomycin (BLM) and”, “phosphorus was” for “phosphorus were”, “intervention. On the fourth day, the DMEM complete medium was replaced and 2.6 mM phosphorus was added to induce calcification again, and 100 µM 1-methylnicotinamide or 25 µM nicotinamide N-methyltransferase inhibitor (NNMTi) was added for intervention.” for “intervention.”
as §2

[4] = tested on: Human vascular smooth muscle cells; assay: cisplatin (DDP) and phosphorus-induced calcification of vascular smooth muscle cells under aging conditions (alizarin red staining, calcium content); type: cell-based; conditions: 100 µM 1-methylnicotinamide, 2.6 mM phosphorus, 7 days
Description: 3. To further verify the effect of 1-methylnicotinamide in inhibiting vascular calcification under aging conditions, cisplatin (DDP) and phosphorus were added to induce calcification in vascular smooth muscle cells. After 7 days of intervention with 1-methylnicotinamide or nicotinamide N-methyltransferase inhibitor (NNMTi), alizarin red staining was performed to further evaluate the inhibitory effect of 1-methylnicotinamide on vascular calcification under aging conditions. The specific procedure was as follows.
Human vascular smooth muscle cells of passages 8-12 were plated in a 12-well plate at 1×10^5/well, and 1 mL of DMEM complete medium was added to each well. On the first day after plating, 2.6 mM phosphorus was added to induce calcification, and 100 µM 1-methylnicotinamide or 25 µM nicotinamide N-methyltransferase inhibitor (NNMTi) was added for intervention. […]
4. Cisplatin and phosphorus were added to induce calcification in vascular smooth muscle cells, and 1-methylnicotinamide or nicotinamide N-methyltransferase inhibitor (NNMTi) was added for intervention for 7 days, and then the calcium content was determined. […]
as §2

For `C[n+]1cccc(C(N)=O)c1` [1-methylnicotinamide], the alizarin red staining ([1]; Panel A of Fig. 3) was “could significantly inhibit the calcification of bleomycin-induced aged vascular smooth muscle cells”, the calcium content ([1]; Panel B of Fig. 3) was “had the effect of inhibiting vascular calcification under aging conditions” and the “alizarin red staining of the aorta” value ([2]; 100 mg/kg/day 1-methylnicotinamide with high-calcium and high-adenine feed, Panel A of Fig. 4) was “could significantly inhibit vascular calcification in aged mice”. For the same molecule, the “IHC staining of α-SMA and BMP2 in aortic rings” value ([2]; 1-methylnicotinamide with high-calcium and high-adenine feed, Panel B of Fig. 4) was “could significantly inhibit vascular calcification in aged mice”, the alizarin red staining ([3]; Fig. 1) was “could significantly inhibit the occurrence of vascular calcification” and the calcium content ([3]; Fig. 2) was “had the effect of inhibiting vascular calcification”. For the same molecule, the calcium content ([4]; 1 µM cisplatin, Panel D of Fig. 3) was “had the effect of inhibiting vascular calcification under aging conditions” and the alizarin red staining ([4]; 1 µg/mL cisplatin, Panel C of Fig. 3) was “could significantly inhibit the calcification of cisplatin-induced aged vascular smooth muscle cells”.
